{
  "source": "paper PMC5218480",
  "about": "(PLoS ONE, 2017)",
  "system": "MV-4-11 cells",
  "test": "Gene expression microarray analysis (Affymetrix PrimeView) and GSEA",
  "assay_type": "cell-based, human",
  "set-up": "RFU PODN (11730768_x_at) / Fold change /veh PODN (11730768_x_at) / RFU LINC00158 (11744669_a_at) / Fold change /veh LINC00158 (11744669_a_at) / RFU DUSP10 (11751237_a_at) / Fold change /veh DUSP10 (11751237_a_at) / RFU ID3 (11757404_x_at) / Fold change /veh ID3 (11757404_x_at) / RFU PLEKHG5 (11737974_s_at) / Fold change /veh PLEKHG5 (11737974_s_at) / RFU LRRC4B (11730491_at) / Fold change /veh LRRC4B (11730491_at) / RFU GIMAP4 (11747438_a_at) / Fold change /veh GIMAP4 (11747438_a_at) / RFU KRT8 (11758183_x_at) / Fold change /veh KRT8 (11758183_x_at) / RFU CNN1 (11734310_a_at) / Fold change /veh CNN1 (11734310_a_at) / RFU VPS37D (11726825_at) / Fold change /veh VPS37D (11726825_at) / RFU C10orf10 (11716522_x_at) / Fold change /veh C10orf10 (11716522_x_at) / RFU KIR2DL2 /// KIR2DL4 /// KIR2DL5A /// KIR2DL5B /// KIR2DS1 /// KIR2DS2 /// KIR2DS3 /// KIR2DS4 /// KIR3DL3 /// KIR3DL3 /// KIR3DS1 (11738374_at) / Fold change /veh KIR2DL2 /// KIR2DL4 /// KIR2DL5A /// KIR2DL5B /// KIR2DS1 /// KIR2DS2 /// KIR2DS3 /// KIR2DS4 /// KIR3DL3 /// KIR3DL3 /// KIR3DS1 (11738374_at) / RFU C1QL1 (11718748_at) / Fold change /veh C1QL1 (11718748_at) / RFU TMPRSS4 (11747572_a_at) / Fold change /veh TMPRSS4 (11747572_a_at) / RFU HAMP (11756126_x_at) / Fold change /veh HAMP (11756126_x_at) / RFU RNFT2 (11725882_a_at) / Fold change /veh RNFT2 (11725882_a_at) / RFU NR4A2 (11747474_a_at) / Fold change /veh NR4A2 (11747474_a_at) / RFU ABCC12 (11746883_a_at) / Fold change /veh ABCC12 (11746883_a_at) / RFU TMEM136 (11760407_x_at) / Fold change /veh TMEM136 (11760407_x_at) / RFU CLDN22 /// WWC2 (11732394_at) / Fold change /veh CLDN22 /// WWC2 (11732394_at) / RFU HLA-DPB1 (11760878_x_at) / Fold change /veh HLA-DPB1 (11760878_x_at) / RFU SPINT1 (11716480_a_at) / Fold change /veh SPINT1 (11716480_a_at) / RFU GAP43 (11754022_s_at) / Fold change /veh GAP43 (11754022_s_at) / RFU A4GNT (11735810_at) / Fold change /veh A4GNT (11735810_at) / RFU PRB3 (11715151_x_at) / Fold change /veh PRB3 (11715151_x_at) / RFU TUBB4B (11761932_at) / Fold change /veh TUBB4B (11761932_at) / RFU CAPN14 (11732068_a_at) / Fold change /veh CAPN14 (11732068_a_at) / RFU TMCC2 (11721928_a_at) / Fold change /veh TMCC2 (11721928_a_at) / RFU IRGQ (11745062_a_at) / Fold change /veh IRGQ (11745062_a_at) / RFU FAM174B (11720279_a_at) / Fold change /veh FAM174B (11720279_a_at) / RFU TMPRSS4 (11748680_a_at) / Fold change /veh TMPRSS4 (11748680_a_at) / RFU FAM212B (11763350_a_at) / Fold change /veh FAM212B (11763350_a_at) / RFU PLEKHG5 (11743358_a_at) / Fold change /veh PLEKHG5 (11743358_a_at) / RFU ZSCAN30 (11745921_a_at) / Fold change /veh ZSCAN30 (11745921_a_at) / RFU CMKLR1 (11741424_a_at) / Fold change /veh CMKLR1 (11741424_a_at) / RFU LOC101060620 /// MAPK8IP1 (11723275_at) / Fold change /veh LOC101060620 /// MAPK8IP1 (11723275_at) / RFU SPTSSB (11747773_x_at) / Fold change /veh SPTSSB (11747773_x_at) / RFU PRSS12 (11739890_at) / Fold change /veh PRSS12 (11739890_at) / RFU BIN1 (11741810_x_at) / Fold change /veh BIN1 (11741810_x_at) / RFU WNT11 (11732464_a_at) / Fold change /veh WNT11 (11732464_a_at) / RFU C10orf10 (11716521_a_at) / Fold change /veh C10orf10 (11716521_a_at) / RFU C5orf56 (11738089_at) / Fold change /veh C5orf56 (11738089_at) / RFU CYB561 (11721691_x_at) / Fold change /veh CYB561 (11721691_x_at) / RFU ANKRD19P (11752326_a_at) / Fold change /veh ANKRD19P (11752326_a_at) / RFU OR2T12 /// OR2T33 /// OR2T8 (11738714_s_at) / Fold change /veh OR2T12 /// OR2T33 /// OR2T8 (11738714_s_at) / RFU VCAN (11748164_a_at) / Fold change /veh VCAN (11748164_a_at) / RFU JSRP1 (11732532_at) / Fold change /veh JSRP1 (11732532_at) / RFU KRTAP10-11 (11738290_x_at) / Fold change /veh KRTAP10-11 (11738290_x_at) / RFU MYO3A (11730013_a_at) / Fold change /veh MYO3A (11730013_a_at) / RFU EBF3 (11725865_a_at) / Fold change /veh EBF3 (11725865_a_at) / RFU CAMK2N1 (11719241_x_at) / Fold change /veh CAMK2N1 (11719241_x_at) / RFU C5orf56 (11738088_a_at) / Fold change /veh C5orf56 (11738088_a_at) / RFU OLFML3 (11715873_a_at) / Fold change /veh OLFML3 (11715873_a_at) / RFU LOC100653217 /// NTM (11731650_a_at) / Fold change /veh LOC100653217 /// NTM (11731650_a_at) / RFU MAPK11 (11762145_a_at) / Fold change /veh MAPK11 (11762145_a_at) / RFU FIZ1 (11724087_x_at) / Fold change /veh FIZ1 (11724087_x_at) / RFU OASL (11726364_x_at) / Fold change /veh OASL (11726364_x_at) / RFU SOX15 (11748057_x_at) / Fold change /veh SOX15 (11748057_x_at) / RFU CD79A (11719716_a_at) / Fold change /veh CD79A (11719716_a_at) / RFU HIST1H1D (11736915_at) / Fold change /veh HIST1H1D (11736915_at) / RFU CASKIN2 (11723855_a_at) / Fold change /veh CASKIN2 (11723855_a_at) / RFU LOC730098 (11760151_x_at) / Fold change /veh LOC730098 (11760151_x_at) / RFU OR4N2 (11742367_at) / Fold change /veh OR4N2 (11742367_at) / RFU PRRT2 (11749266_a_at) / Fold change /veh PRRT2 (11749266_a_at) / RFU SNX32 (11753110_a_at) / Fold change /veh SNX32 (11753110_a_at) / RFU CDHR5 (11726645_a_at) / Fold change /veh CDHR5 (11726645_a_at) / RFU RCAN1 (11760418_a_at) / Fold change /veh RCAN1 (11760418_a_at) / RFU FAM167A (11723789_a_at) / Fold change /veh FAM167A (11723789_a_at) / RFU FAM26E (11764081_at) / Fold change /veh FAM26E (11764081_at) / RFU ISYNA1 (11749810_s_at) / Fold change /veh ISYNA1 (11749810_s_at) / RFU ACY1 (11761880_at) / Fold change /veh ACY1 (11761880_at) / RFU 11764098_at / Fold change /veh 11764098_at / RFU SAMD14 (11745864_x_at) / Fold change /veh SAMD14 (11745864_x_at) / RFU NPB (11741838_a_at) / Fold change /veh NPB (11741838_a_at) / RFU TMPRSS6 (11731388_a_at) / Fold change /veh TMPRSS6 (11731388_a_at) / RFU KRTAP10-2 (11738614_at) / Fold change /veh KRTAP10-2 (11738614_at) / RFU ARHGAP8 /// PRR5-ARHGAP8 (11727945_x_at) / Fold change /veh ARHGAP8 /// PRR5-ARHGAP8 (11727945_x_at) / RFU KRTAP5-7 /// NADSYN1 (11734609_at) / Fold change /veh KRTAP5-7 /// NADSYN1 (11734609_at) / RFU RASL12 (11751679_a_at) / Fold change /veh RASL12 (11751679_a_at) / RFU CDKN2B (11736163_a_at) / Fold change /veh CDKN2B (11736163_a_at) / RFU PRF1 (11729649_at) / Fold change /veh PRF1 (11729649_at) / RFU, ZNF638 /// ZNF638-IT1 / Fold change vs veh, ZNF638 /// ZNF638-IT1 / RFU, PANK3 / Fold change vs veh, PANK3 / RFU, SH3YL1 / Fold change vs veh, SH3YL1 / RFU, ZEB2 / Fold change vs veh, ZEB2 / RFU, NRIP1 / Fold change vs veh, NRIP1 / RFU, PTTG1IP / Fold change vs veh, PTTG1IP / RFU, CAPN2 / Fold change vs veh, CAPN2 / RFU, MED14 / Fold change vs veh, MED14 / RFU, SNORA58 / Fold change vs veh, SNORA58 / RFU, C1orf63 / Fold change vs veh, C1orf63 / RFU, LRRFIP1 / Fold change vs veh, LRRFIP1 / RFU, NDUFAF7 / Fold change vs veh, NDUFAF7 / RFU, SLC12A2 / Fold change vs veh, SLC12A2 / RFU, IBTK / Fold change vs veh, IBTK / RFU, ESF1 / Fold change vs veh, ESF1 / Fold change vs veh, TMEM50B / RFU, TAOK1 / Fold change vs veh, TAOK1 / RFU, ACBD3 / Fold change vs veh, ACBD3 / RFU, TMA16 / Fold change vs veh, TMA16 / RFU, RWDD3 / Fold change vs veh, RWDD3 / RFU, BCAT1 / Fold change vs veh, BCAT1 / RFU, EDEM3 / Fold change vs veh, EDEM3 / RFU, TMEM33 / Fold change vs veh, TMEM33 / RFU, WDR75 / Fold change vs veh, WDR75 / RFU, AHCTF1 / Fold change vs veh, AHCTF1 / RFU, TFRC / Fold change vs veh, TFRC / RFU, ZDHHC17 / Fold change vs veh, ZDHHC17 / RFU, NOM1 / Fold change vs veh, NOM1 / RFU, ARL8B / Fold change vs veh, ARL8B / RFU, ZBTB11 / Fold change vs veh, ZBTB11 / RFU, TAMM41 / Fold change vs veh, TAMM41 / RFU, KIAA1704 /// LOC100996395 / Fold change vs veh, KIAA1704 /// LOC100996395 / RFU, ING1 / Fold change vs veh, ING1 / RFU, TRMT61B / Fold change vs veh, TRMT61B / RFU, FUBP3 / Fold change vs veh, FUBP3 / RFU, TP53 / Fold change vs veh, TP53 / RFU, TNKS2 / Fold change vs veh, TNKS2 / RFU, ZFP14 / Fold change vs veh, ZFP14 / RFU, ACTR2 / Fold change vs veh, ACTR2 / RFU, PPP3R1 / Fold change vs veh, PPP3R1 / RFU, PIK3R1 / Fold change vs veh, PIK3R1 / RFU, HNRNPA1 / Fold change vs veh, HNRNPA1 / RFU, RNF170 / Fold change vs veh, RNF170 / RFU, ZNF28 / Fold change vs veh, ZNF28 / RFU, RNGTT / Fold change vs veh, RNGTT / RFU, OGT / Fold change vs veh, OGT / RFU, BRD1 / Fold change vs veh, BRD1 / RFU, MARS / Fold change vs veh, MARS / RFU, ZNF655 / Fold change vs veh, ZNF655 / RFU, FAHD1 / Fold change vs veh, FAHD1 / RFU, BDP1 / Fold change vs veh, BDP1 / RFU, LRRCC1 / Fold change vs veh, LRRCC1 / RFU, ARID1A / Fold change vs veh, ARID1A / RFU, ZNF146 / Fold change vs veh, ZNF146 / RFU, ZNF330 / Fold change vs veh, ZNF330 / RFU, GPN3 / Fold change vs veh, GPN3 / RFU, C9orf123 / Fold change vs veh, C9orf123 / RFU, N4BP2L2 / Fold change vs veh, N4BP2L2 / RFU, ARFIP1 / Fold change vs veh, ARFIP1 / RFU, FAM179B / Fold change vs veh, FAM179B / RFU, BCL10 / Fold change vs veh, BCL10 / RFU, UHRF1BP1L / Fold change vs veh, UHRF1BP1L / RFU, BET1 / Fold change vs veh, BET1 / RFU, CNOT2 / Fold change vs veh, CNOT2 / RFU, ZNF268 / Fold change vs veh, ZNF268 / Fold change vs veh, ZNF507 / RFU, DGCR2 / Fold change vs veh, DGCR2 / RFU, WDSUB1 / Fold change vs veh, WDSUB1 / Fold change vs veh, HSP90B1 /// MIR3652 / RFU, ADSS / Fold change vs veh, ADSS / RFU, GK / Fold change vs veh, GK / RFU, ZNF148 / Fold change vs veh, ZNF148 / RFU, TAF9 / Fold change vs veh, TAF9 / RFU, SLC1A5 / Fold change vs veh, SLC1A5 / RFU, SLMO2 / Fold change vs veh, SLMO2 / RFU, ABCC4 / Fold change vs veh, ABCC4 / RFU, LOC101060439 /// RAP1B / Fold change vs veh, LOC101060439 /// RAP1B / RFU, RFX7 / Fold change vs veh, RFX7 / RFU, GTPBP10 / Fold change vs veh, GTPBP10 / RFU, CNEP1R1 / Fold change vs veh, CNEP1R1 / RFU, BIVM-ERCC5 /// ERCC5 / Fold change vs veh, BIVM-ERCC5 /// ERCC5 / RFU, ILF3 / Fold change vs veh, ILF3 / RFU 11762660_at / Fold change /veh 11762660_at / RFU VCAN (11757783_s_at) / Fold change /veh VCAN (11757783_s_at) / RFU DDX43 (11728927_at) / Fold change /veh DDX43 (11728927_at) / RFU KRT8 (11758188_x_at) / Fold change /veh KRT8 (11758188_x_at) / RFU NKD1 (11759106_at) / Fold change /veh NKD1 (11759106_at) / RFU SRD5A1 (11742802_a_at) / Fold change /veh SRD5A1 (11742802_a_at) / RFU TPSAB1 /// TPSB2 (11721975_s_at) / Fold change /veh TPSAB1 /// TPSB2 (11721975_s_at) / RFU GSTM3 (11746129_a_at) / Fold change /veh GSTM3 (11746129_a_at) / RFU IL23R (11737362_x_at) / Fold change /veh IL23R (11737362_x_at) / RFU TMEM51 (11727254_a_at) / Fold change /veh TMEM51 (11727254_a_at) / RFU PIWIL2 (11732686_x_at) / Fold change /veh PIWIL2 (11732686_x_at) / RFU ORM1 (11744905_x_at) / Fold change /veh ORM1 (11744905_x_at) / RFU CCDC152 (11743942_at) / Fold change /veh CCDC152 (11743942_at) / RFU ECM1 (11717891_a_at) / Fold change /veh ECM1 (11717891_a_at) / RFU IL23R (11748794_a_at) / Fold change /veh IL23R (11748794_a_at) / RFU TNFAIP8L3 (11732012_x_at) / Fold change /veh TNFAIP8L3 (11732012_x_at) / RFU MBOAT4 (11741988_at) / Fold change /veh MBOAT4 (11741988_at) / RFU 11764193_at / Fold change /veh 11764193_at / RFU TMEM53 (11763286_at) / Fold change /veh TMEM53 (11763286_at) / RFU MAGEB2 (11727129_at) / Fold change /veh MAGEB2 (11727129_at) / RFU TMEM200A (11744735_a_at) / Fold change /veh TMEM200A (11744735_a_at) / RFU CCDC152 (11751479_a_at) / Fold change /veh CCDC152 (11751479_a_at) / RFU FAM211A (11726209_a_at) / Fold change /veh FAM211A (11726209_a_at) / RFU RGS16 (11746705_a_at) / Fold change /veh RGS16 (11746705_a_at) / RFU VCAN (11755009_s_at) / Fold change /veh VCAN (11755009_s_at) / RFU RHOB (11743442_s_at) / Fold change /veh RHOB (11743442_s_at) / RFU RGS16 (11720943_a_at) / Fold change /veh RGS16 (11720943_a_at) / RFU RGS16 (11720944_at) / Fold change /veh RGS16 (11720944_at) / RFU, VPS4B / Fold change vs veh, VPS4B / RFU, CREB1 / Fold change vs veh, CREB1 / RFU, DNAJC13 / Fold change vs veh, DNAJC13 / RFU, GNAQ / Fold change vs veh, GNAQ / RFU, CDK5R1 / Fold change vs veh, CDK5R1 / RFU, ZRANB3 / Fold change vs veh, ZRANB3 / RFU, CUL4A / Fold change vs veh, CUL4A / RFU, CCNY / Fold change vs veh, CCNY / RFU, UFL1 / Fold change vs veh, UFL1 / RFU, COG3 / Fold change vs veh, COG3 / RFU, DIAPH2 / Fold change vs veh, DIAPH2 / RFU, SKA2 / Fold change vs veh, SKA2 / RFU, AFF3 / Fold change vs veh, AFF3 / RFU, LMF1 / Fold change vs veh, LMF1 / RFU, IPO11 / Fold change vs veh, IPO11 / RFU, DFFB / Fold change vs veh, DFFB / RFU, FOXP1 / Fold change vs veh, FOXP1 / RFU, CARD8 / Fold change vs veh, CARD8 / RFU, STRN3 / Fold change vs veh, STRN3 / RFU, ADK / Fold change vs veh, ADK / RFU, RASSF2 / Fold change vs veh, RASSF2 / RFU, WIPF1 / Fold change vs veh, WIPF1 / RFU, LARP1B / Fold change vs veh, LARP1B / RFU, RASA1 / Fold change vs veh, RASA1 / RFU, RB1 / Fold change vs veh, RB1 / RFU, PPFIA1 / Fold change vs veh, PPFIA1 / RFU, MAT2A / Fold change vs veh, MAT2A / RFU, CCT5 / Fold change vs veh, CCT5 / RFU, WDR92 / Fold change vs veh, WDR92 / RFU, CUX1 / Fold change vs veh, CUX1 / RFU, TTC7A / Fold change vs veh, TTC7A / RFU, TMEM135 / Fold change vs veh, TMEM135 / RFU, DEPTOR / Fold change vs veh, DEPTOR / RFU, CPM / Fold change vs veh, CPM / RFU, DNAJB6 / Fold change vs veh, DNAJB6 / RFU, CACNA2D3 / Fold change vs veh, CACNA2D3 / RFU, DTX4 / Fold change vs veh, DTX4 / RFU, TFCP2 / Fold change vs veh, TFCP2 / RFU, GMCL1 /// GMCL1P1 / Fold change vs veh, GMCL1 /// GMCL1P1 / RFU, AEBP2 / Fold change vs veh, AEBP2 / RFU, SNHG1 /// SNORD22 /// SNORD25 /// SNORD26 /// SNORD27 /// SNORD28 /// SNORD29 /// SNORD31 / Fold change vs veh, SNHG1 /// SNORD22 /// SNORD25 /// SNORD26 /// SNORD27 /// SNORD28 /// SNORD29 /// SNORD31 / Fold change (Aza/veh), C12orf56 (ProbeSet 11735607_a_at) / Fold change (ACY-1035/veh), C12orf56 (ProbeSet 11735607_a_at) / Fold change (Aza/veh), FGFR1OP (ProbeSet 11751329_s_at) / Fold change (ACY-1035/veh), FGFR1OP (ProbeSet 11751329_s_at) / Fold change (Aza/veh), VPS36 (ProbeSet 11739960_a_at) / Fold change (ACY-1035/veh), VPS36 (ProbeSet 11739960_a_at) / RFU SYPL1 (11715823_x_at) / Fold change /veh SYPL1 (11715823_x_at) / RFU IGFBP7 (11715501_s_at) / Fold change /veh IGFBP7 (11715501_s_at) / RFU REEP3 (11722064_at) / Fold change /veh REEP3 (11722064_at) / RFU IGLL1 (11728026_x_at) / Fold change /veh IGLL1 (11728026_x_at): dose or concentration left out as unconfirmed",
  "details": "ProbeSet 11733176_x_at; LIST B",
  "data": [
    {"smiles": "Nc1ncn([C@@H]2O[C@H](CO)[C@@H](O)[C@H]2O)c(=O)n1", "note": "[azacitidine]", "values": [
      {"measurement": "Fold change vs veh, ZNF507", "result": 0.97}
    ]}
  ]
}
